Data reported in US7247611B2, “Compositions and methods for promoting internalization and degradation of urokinase-type plasminogen activator” (The Trustees of the University of Pennsylvania, priority 1997, dated 2007).
Entries after “also recorded” stand apart in the source; their conditions may differ.

Columns and labels:
scuPA-uPAR complex = scuPA-uPAR complex (Homo sapiens, UniProt P00749); test: scuPA-uPAR complex formation; format: binding
[1] = system: LM-TK^− cells (α2MR^+/LRP, uPAR^−); test: Ligand binding assay: binding of 125I-labeled scuPA, tcuPA and their suPAR complexes to LM-TK^− cells; format: cell-based; conditions: for promotion of scuPA binding to LM-TK^− cells: 1B
Method: Briefly, LM-TK^− cells were suspended in DMEM (GIBCO, Grand Island, N.Y.) containing 10% (v/v) fetal calf serum and were grown to confluence at 37° C. overnight in 96-well Falcon™ multiwell tissue culture dishes (Becton Dickinson, Lincoln Park, N.J.). The cells were chilled for one hour on ice and were washed twice with chilled binding buffer. ^125I-labeled ligands, with or without 50-fold molar excess of non-labeled ligands, were added to the cells in the presence or absence of 0-300 micromolar peptide, and the cell cultures were incubated for two hours at 4° C. The cells were washed four times with binding buffer, solubilized in 0.1 N NaOH, and the cell extract was assessed for radioactivity. […] Assays were repeated at least three times, and data presented herein represent the mean and standard deviation.

LM-TK^− cells = test: Internalization and degradation of 125I-scuPA by LM-TK^− cells; format: cell-based
Method: LM-TK^− cells were grown overnight at 37° C. to confluence in 48-well Falcon™ Multiwell tissue culture dishes (Becton Dickinson, Lincoln Park, N.J.). Cells were prechilled on ice for one hour, washed twice with a buffer comprising TBS, 4 millimolar Ca^2+, and 3% (w/v) BSA, and incubated for one hour at room temperature with the same buffer or with buffer supplemented with either 400 nanomolar rRAP or 100 micrograms per milliliter IgG anti-α2MR/LRP. The buffer was removed, ^125I -scuPA was added to the cells, and the cells were incubated for two hours at 4° C. in the presence of 0-300 micromolar peptide, 0 or 400 nanomolar rRAP, and 0 or 100 micrograms per milliliter anti-α2MR/LRP. Unbound ligand was removed and cells were washed five times with the buffer. DMEM comprising 4 millimolar Ca^2+, 0 or 400 nanomolar rRAP, and 0 or 100 micrograms per milliliter anti-α2MR/LRP was added to the cells, and the cells were incubated for eighteen hours at 37° C. […] Briefly, to measure internalization, cells were washed twice with the buffer, a solution comprising 50 millimolar glycine 150 millimolar NaCl at pH 3.0 was added to the cells, and the cells were incubated for fifteen minutes at 4° C. to dissociate cell surface-bound ligands. […] Radioactivity in the cell extract was assessed.

purified α2MR/LRP = test: Solid phase binding assay of 125I-labeled ligands to immobilized purified α2MR/LRP
Method: To measure the binding of labeled ligands to α2MR/LRP, a 96-well microtiter plate was incubated with 3 micrograms per milliliter purified α2MR/LRP or with 3 micrograms per milliliter BSA in TBS containing 4 millimolar Ca^2+ overnight at 4° C. The buffer was removed, and the non-reacted sites on the plate were blocked using a blocking solution comprising TBS, 4 millimolar Ca^2+, 0.05% (v/v) Tween-20, and 3% (w/v) BSA. The wells of the plate were filled with the blocking solution and incubated for one hour at 4° C. Next, the blocking solution was removed, each well was filled with a solution comprising blocking solution and 0 or 200 nanomolar rRAP, and the plate was incubated at 4° C. for another hour. Binding of ^125I-labeled ligands to immobilized α2MR/LRP was determined as described (Higazi et al., 1996, Blood 88:542-551; Nykjaer et al., 1993, J. Biol. Chem. 268:15048-15055).

PAI-1 = target: T1, PAI-1 (Homo sapiens, UniProt P05121); test: Assessment of plasminogen activator activity (inhibition of PAI-1 activity, tcuPA as substrate of PAI-1); format: biochemical; conditions: 5 nanomolar tcuPA, 200 micromolar peptide, 25 nanomolar PAI-1; FIG. 4
T1 construct: purchased American Diagnostica, Inc. (Greenwich, Conn.)
Method: A solution comprising 5 nanomolar tcuPA, 0 or 200 micromolar peptide EEIIMD (SEQ ID NO: 3), and 0 or 200 micromolar peptide REIIMD (SEQ ID NO: 4) was incubated for thirty minutes. The solution was then added to a reaction mixture comprising 25 nanomolar PAI-1, 50 nanomolar Glu-plasminogen, and 50 micromolar chromogenic substrate, and the optical density of the mixture at 405 nanometers was measured continuously, as described (Higazi et al., 1996, Blood 87:3545-3549).

## EEIIMD [hexapeptide homologous with amino acids 350-355 of PAI-1]
scuPA-uPAR complex
  effect on scuPA-uPAR complex formation: did not affect
[1]
  effect on binding of tcuPA to LM-TK^− cells: failed to stimulate binding of tcuPA; also recorded: had no effect
[1]; FIG. 1A
  promotion of scuPA binding to LM-TK^− cells: promoted binding
[1]; FIG. 1B
  peptide concentration giving near-maximal effect on scuPA binding to LM-TK^− cells: approximately 300 micromolar
[1]; FIG. 3
  effect on binding of the scuPA-suPAR complex to LM-TK^− cells: minimal increase
  effect on binding of the tcuPA-suPAR complex to LM-TK^− cells: had no effect
[1]; presence versus absence of the peptide, two hours at 4° C.
  increase in the value of Bmax for scuPA binding to LM-TK^− cells: four-fold
[1]; read-out: peptide concentration for half maximal stimulation of scuPA binding to LM-TK^− cells, FIG. 1B
  EC50: ~50 µM
[1]; scuPA preincubated with PAI-1, FIG. 2
  scuPA-binding-promoting effect in the presence of PAI-1: identical to the effect observed in the absence of PAI-1
LM-TK^− cells; eighteen hours at 37° C., FIG. 6
  effect on internalization and degradation of scuPA by LM-TK^− cells: promoted both internalization and degradation; also recorded: accelerated the rate of internalization and degradation
Purified α2MR/LRP
  effect on binding of tcuPA to purified α2MR/LRP: had no effect
  effect on binding of the scuPA-suPAR complex to α2MR/LRP: had no effect
Purified α2MR/LRP; FIG. 5A
  effect on binding of scuPA to purified α2MR/LRP: promoted binding of scuPA to purified α2MR/LRP
PAI-1
  inhibition of PAI-1 activity: inhibits PAI-1 activity; also recorded: competitive inhibitor of PAI-1 binding to tcuPA

## rRAP: recombinant 39 kilodalton α2MR/LRP. (receptor-associated protein), inhibits ligand binding to α2MR/LRP [reference compound]
[1]; 400 nanomolar rRAP, FIG. 5B
  inhibition of EEIIMD-promoted binding of scuPA to LM-TK^− cells: approximately 70%
LM-TK^− cells; 400 nanomolar rRAP
  inhibition of EEIIMD-promoted scuPA internalization and degradation by LM-TK^− cells: approximately 70%
Purified α2MR/LRP; 200 nanomolar rRAP, FIG. 5A
  effect on EEIIMD-promoted binding of scuPA to purified α2MR/LRP: inhibited

## REIIMD [hexapeptide, amino terminal Glu of EEIIMD substituted by Arg]
[1]; FIG. 1A
  promotion of scuPA binding to LM-TK^− cells: nearly as potent a promoter of scuPA binding to LM-TK^− cells as was peptide EEIIMD

## EEIIMR [hexapeptide, carboxyl terminal Asp of EEIIMD substituted by Arg; control peptide]
[1]; LM-TK^− cells, FIG. 1A
  scuPA-binding-promoting activity relative to that of peptide EEIIMD: approximately 20%
PAI-1
  inhibition of PAI-1 activity: did not inhibit PAI-1 activity
